From patent US8415351B2 (priority 2007, dated 2013)
pEC50, pIC50: −log10 of the molar value.

Key:
[1] = biological target: T1, HCV polymerase 1A (Δ21 NS5B, H77) (Hepatitis C virus genotype 1a, UniProt P27958); assay: biochemical; conditions: IC50 1a
T1 construct: 20 to 50 nM Δ21 NS5B
Protocol: (§1) HCV Polymerase Inhibition Assay
The reaction was initiated by the addition of 20 μM CTP, 20 μM ATP, 1 μM ^3H-UTP (10 mCi/umol), 5 nM template RNA and 0.1 U/μl RNase inhibitor (RNasin, Promega), and allowed to proceed for 2 to 4 h at room temperature. Reaction volume was 50 μl. The reaction was terminated by the addition of 1 volume of 4 mM spermine in 10 mM Tris-Cl pH 8.0, 1 mM EDTA. After incubation for at least 15 min at room temperature, the precipitated RNA was captured by filtering through a GF/B filter (Millipore) in a 96 well format. The filter plate was washed three times with 200 μl each of 2 mM spermine, 10 mM Tris-Cl pH 8.0, 1 mM EDTA, and 2 times with ethanol. After air-drying, 30 μl of Microscint 20 scintillation cocktail (Packard) was added to each well, and the retained cpm were determined by scintillation counting. […] Retained cpm were plotted vs. inhibitor concentration and fit to equation 1 using non-linear regression (ref. 1) to obtain the IC50 values: Retained cpm=A[sqrt{(IC50+It−Et)^2+4*IC50*Et}−(IC50+It−Et)]
Ref. Morrison, J. F. and S. R. Stone. […] Approaches to the study and analysis of the inhibition of enzymes by slow- and tight-binding inhibitors. Comments Mol. Cell. Biophys.
The sequence of the template RNA used was: 5′-[…]

[2] = biological target: T2, HCV polymerase 1B (Δ21 NS5B, BK) (Hepatitis C virus genotype 1b, UniProt P26663); assay: biochemical
T2 construct: 20 to 50 nM Δ21 NS5B
T2 sequence (P26663 2420-2989, stated change not applied): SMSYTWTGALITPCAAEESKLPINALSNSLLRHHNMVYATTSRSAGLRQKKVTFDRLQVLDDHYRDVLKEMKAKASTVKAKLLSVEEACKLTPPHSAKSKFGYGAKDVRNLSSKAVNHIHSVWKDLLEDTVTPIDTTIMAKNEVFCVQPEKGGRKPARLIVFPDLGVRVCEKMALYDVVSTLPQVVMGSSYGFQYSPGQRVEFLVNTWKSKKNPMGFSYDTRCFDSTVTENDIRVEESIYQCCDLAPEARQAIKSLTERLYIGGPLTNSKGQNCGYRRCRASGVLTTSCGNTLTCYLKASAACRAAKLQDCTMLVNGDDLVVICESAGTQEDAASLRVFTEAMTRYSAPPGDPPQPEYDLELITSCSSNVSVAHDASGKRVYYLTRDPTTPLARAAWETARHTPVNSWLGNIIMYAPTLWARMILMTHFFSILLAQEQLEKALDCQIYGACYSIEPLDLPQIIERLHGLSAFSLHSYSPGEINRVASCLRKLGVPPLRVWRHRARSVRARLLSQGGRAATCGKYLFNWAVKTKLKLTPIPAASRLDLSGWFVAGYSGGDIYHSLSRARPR
Protocol: as §1
Either two-fold serial dilutions (fractional inhibition assay) or a narrower range of dilutions spanning the IC50 of the inhibitor (tight binding assay) of the inhibitors were incubated with 20 mM Tris-Cl pH 7.4, 2 mM MnCl2, 1 mM dithiothreitol, 1 mM ethylene diamine tetraacetic acid (EDTA), 60 to 125 μM GTP and 20 to 50 nM Δ21 NS5B (HCV Strain 1B (BK, Genbank accession number M58335, or H77, Genbank accession number AF011751)) for 15 min at room temperature. The reaction was initiated by the addition of 20 μM CTP, 20 μM ATP, 1 μM ^3H-UTP (10 mCi/umol), 5 nM template RNA and 0.1 U/μl RNase inhibitor (RNasin, Promega), and allowed to proceed for 2 to 4 h at room temperature. Reaction volume was 50 μl. The reaction was terminated by the addition of 1 volume of 4 mM spermine in 10 mM Tris-Cl pH 8.0, 1 mM EDTA. After incubation for at least 15 min at room temperature, the precipitated RNA was captured by filtering through a GF/B filter (Millipore) in a 96 well format. The filter plate was washed three times with 200 μl each of 2 mM spermine, 10 mM Tris-Cl pH 8.0, 1 mM EDTA, and 2 times with ethanol. After air-drying, 30 μl of Microscint 20 scintillation cocktail (Packard) was added to each well, and the retained cpm were determined by scintillation counting. […] Retained cpm were plotted vs. inhibitor concentration and fit to equation 1 using non-linear regression (ref. 1) to obtain the IC50 values: Retained cpm=A[sqrt{(IC50+It−Et)^2+4*IC50*Et}−(IC50+It−Et)]
Ref. Morrison, J. F. and S. R. Stone. 1985. Approaches to the study and analysis of the inhibition of enzymes by slow- and tight-binding inhibitors. Comments Mol. Cell. Biophys. 2: 347-368.
The sequence of the template RNA used was: 5′-[…] […] […] […] […] […] […] […] […] […] […] […] […] […] […] […] […]-3′ (SEQ ID NO: 1)

[3] = tested on: genotype 1a-H77 subgenomic replicon cell line; assay: microbe, parasite or virus in culture; type: cell-based, HCV; conditions: Hepatitis C virus, read-out: EC50 1a
[4] = tested on: genotype 1b-Con1 subgenomic replicon cell line; assay: microbe, parasite or virus in culture; type: cell-based, HCV; conditions: Hepatitis C virus, read-out: EC50 1b

T1 sequence (P27958 2421-2990, stated change not applied): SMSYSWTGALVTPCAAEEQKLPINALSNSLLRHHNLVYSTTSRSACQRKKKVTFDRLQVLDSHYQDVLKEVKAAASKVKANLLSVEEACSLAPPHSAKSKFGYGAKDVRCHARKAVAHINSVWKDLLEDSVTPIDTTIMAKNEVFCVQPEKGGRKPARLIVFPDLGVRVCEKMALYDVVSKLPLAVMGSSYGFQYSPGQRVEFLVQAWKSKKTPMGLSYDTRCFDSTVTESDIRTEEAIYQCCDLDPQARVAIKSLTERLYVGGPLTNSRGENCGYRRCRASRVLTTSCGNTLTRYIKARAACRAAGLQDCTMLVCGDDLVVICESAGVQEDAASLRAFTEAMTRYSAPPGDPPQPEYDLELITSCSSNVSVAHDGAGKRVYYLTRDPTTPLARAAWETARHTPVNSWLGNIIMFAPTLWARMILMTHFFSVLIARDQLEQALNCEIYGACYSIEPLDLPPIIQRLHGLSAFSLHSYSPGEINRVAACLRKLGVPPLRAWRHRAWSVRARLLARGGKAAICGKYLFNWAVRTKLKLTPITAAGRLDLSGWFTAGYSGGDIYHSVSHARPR

SMILES: COc1c(C(=O)Nc2ccc(N(S(C)(=O)=O)S(C)(=O)=O)cn2)cc(N2CCC(=O)NC2=O)cc1C(C)(C)C [IA-L3-1.101, 3-tert-butyl-5-(2,4-dioxotetrahydropyrimidin-1(2H)-yl)-2-methoxy-N-(5-(N-(methylsulfonyl)methylsulfonamido)pyridin-2-yl)benzamide]
- pIC50 [1]: < 6.00
- pIC50 [2]: < 6.00

SMILES: CCOC(=O)N(c1ccc(NC(=O)c2cc(N3CCC(=O)NC3=O)cc(C(C)(C)C)c2OC)cc1)S(C)(=O)=O [IA-L3-1.74, Ethyl 4-(3-tert-butyl-5-(2,4-dioxotetrahydropyrimidin-1(2H)-yl)-2-methoxybenzamido)-phenyl(methylsulfonyl)carbamate]
- pIC50 [1]: < 6.00
- pIC50 [2]: < 6.00

SMILES: CC(C)(C)c1cc(N2CCC(=O)NC2=O)cc(NC(=O)c2ccccc2)c1O [IA-L4-1.2, N-(3-tert-butyl-5-(2,4-dioxotetrahydropyrimidin-1(2H)-yl)-2-hydroxyphenyl)benzamide]
- pIC50 [1]: < 6.00
- pIC50 [2]: < 6.00

SMILES: COc1c(C(=O)Nc2ccc(N(C(=O)OCC(C)C)S(C)(=O)=O)cc2)cc(N2CCC(=O)NC2=O)cc1C(C)(C)C [IA-L3-1.76, Isobutyl 4-(3-tert-butyl-5-(2,4-dioxotetrahydropyrimidin-1(2H)-yl)-2-methoxybenzamido) phenyl(methylsulfonyl)carbamate]
- pIC50 [1]: < 6.00
- pIC50 [2]: < 6.00

SMILES: CC(C)(C)c1cc(N2CCC(=O)NC2=O)cc(CN2CCCc3cc(NS(C)(=O)=O)ccc32)c1O [IA-L5-1-2.2, N-(1-(3-tert-butyl-5-(2,4-dioxotetrahydropyrimidin-1(2H)-yl)-2-hydroxybenzyl)-1,2,3,4-tetrahydroquinolin-6-yl)methanesulfonamide]
- pIC50 [1]: < 6.00
- pIC50 [2]: < 6.00

SMILES: CCCC(=O)OCN1C(=O)CCN(c2cc(C(=O)Nc3ccc(N(COC(=O)CCC)S(C)(=O)=O)cc3)c(OC)c(C(C)(C)C)c2)C1=O [IA-L3-1.88, (N-(4-(3-tert-butyl-5-(3-(butyryloxymethyl)-2,4-dioxotetrahydropyrimidin-1(2H)-yl)-2-methoxybenzamido)phenyl)methylsulfonamido)methyl butyrate]
- pIC50 [1]: < 6.00
- pIC50 [2]: < 6.00

SMILES: COc1c(C(=O)Nc2ccc3c(c2)CS(=O)(=O)C3)cc(N2CCC(=O)NC2=O)cc1C(C)(C)C [IA-L3-2.3, 3-tert-butyl-N-(2,2-dioxo-1,3-dihydrobenzo[c]thiophen-5-yl)-5-(2,4-dioxotetrahydropyrimidin-1(2H)-yl)-2-methoxybenzamide]
- pIC50 [1]: < 6.00
- pIC50 [2]: < 6.00

SMILES: COc1c(C(=O)Nc2ccc(N(C(=O)C(C)C)S(C)(=O)=O)cc2)cc(N2CCC(=O)NC2=O)cc1C(C)(C)C [IA-L3-1.72, 3-tert-butyl-5-(2,4-dioxotetrahydropyrimidin-1(2H)-yl)-2-methoxy-N-(4-(N-(methylsulfonyl)isobutyramido)phenyl)benzamide]
- pIC50 [1]: < 6.00
- pIC50 [2]: < 6.00

SMILES: CC(C)(C)c1cc(N2CCC(=O)NC2=O)cc(CN2CCOCC2)c1O [IA-L5-1-1.14, 1-(3-tert-butyl-4-hydroxy-5-(morpholinomethyl)phenyl)dihydropyrimidine-2,4(1H,3H)-dione 2,2,2-trifluoroacetate]
- pIC50 [1]: < 6.00
- pIC50 [2]: < 6.00

SMILES: COc1c(C(=O)Nc2ccc(NC(C)=O)cc2)cc(N2CCC(=O)NC2=O)cc1C(C)(C)C [IA-L3-1.47, N-(4-acetamidophenyl)-3-tert-butyl-5-(2,4-dioxotetrahydropyrimidin-1(2H)-yl)-2-methoxy-benzamide]
- pIC50 [1]: < 6.00
- pIC50 [2]: < 6.00

SMILES: COC(=O)Nc1ccc(NC(=O)c2cc(N3CCC(=O)NC3=O)cc(C(C)(C)C)c2OC)cc1 [IA-L3-1.49, Methyl 4-(3-tert-butyl-5-(2,4-dioxotetrahydropyrimidin-1(2H)-yl)-2-methoxybenzamido) phenylcarbamate]
- pIC50 [1]: < 6.00
- pIC50 [2]: < 6.00

SMILES: COc1c(C(=O)Nc2ccc(N(COC(=O)C(C)(C)C)S(C)(=O)=O)cc2)cc(N2CCC(=O)N(COC(=O)C(C)(C)C)C2=O)cc1C(C)(C)C [IA-L3-1.116, (3-(3-tert-butyl-4-methoxy-5-(4-(N-(pivaloyloxymethyl)methylsulfonamido)phenylcarbamoyl)phenyl)-2,6-dioxotetrahydropyrimidin-1(2H)-yl)methyl pivalate]
- pIC50 [1]: < 6.00
- pIC50 [2]: < 6.00

SMILES: COc1c(C(=O)Nc2ccc(C(C)=O)cc2)cc(N2CCC(=O)NC2=O)cc1C(C)(C)C [IA-L3-1.42, N-(4-acetylphenyl)-3-tert-butyl-5-(2,4-dioxotetrahydropyrimidin-1(2H)-yl)-2-methoxy-benzamide]
- pIC50 [1]: < 6.00
- pIC50 [2]: < 6.00

SMILES: COc1c(-c2nc3cc(N(S(C)(=O)=O)S(C)(=O)=O)ccc3[nH]2)cc(N2CCC(=O)NC2=O)cc1C(C)(C)C [IA-L0-2.10, N-(2-(3-tert-butyl-5-(2,4-dioxotetrahydropyrimidin-1(2H)-yl)-2-methoxyphenyl)-1H-benzo[d]imidazol-5-yl)-N-(methylsulfonyl)methanesulfonamide]
- pIC50 [1]: < 6.00
- pIC50 [2]: < 6.00

SMILES: COc1c(C(=O)Nc2ccc(NC(=O)OC(C)(C)C)cc2)cc(N2CCC(=O)NC2=O)cc1C(C)(C)C [IA-L3-1.50, Tert-butyl 4-(3-tert-butyl-5-(2,4-dioxotetrahydropyrimidin-1(2H)-yl)-2-methoxybenzamido)-phenylcarbamate]
- pIC50 [1]: < 6.00
- pIC50 [2]: < 6.00

SMILES: COCCOC(=O)N(c1ccc(NC(=O)c2cc(N3CCC(=O)NC3=O)cc(C(C)(C)C)c2OC)cc1)S(C)(=O)=O [IA-L3-1.77, 2-methoxyethyl 4-(3-tert-butyl-5-(2,4-dioxotetrahydropyrimidin-1(2H)-yl)-2-methoxybenzamido)phenyl(methylsulfonyl)carbamate]
- pIC50 [1]: < 6.00
- pIC50 [2]: < 6.00

SMILES: COc1c(C(=O)Nc2ccc(NS(C)(=O)=O)cc2)cc(N2CCC(=O)N(CC3OCCO3)C2=O)cc1C(C)(C)C [IA-L3-1.117, 5-(3-((1,3-dioxolan-2-yl)methyl)-2,4-dioxotetrahydropyrimidin-1(2H)-yl)-3-tert-butyl-2-methoxy-N-(4-(methylsulfonamido)phenyl)benzamide]
- pIC50 [1]: < 6.00
- pIC50 [2]: < 6.00

SMILES: COc1c(NC(=O)c2ccc(CS(C)(=O)=O)cc2)cc(N2CCC(=O)NC2=O)cc1C(C)(C)C [IA-L4-1.10, N-(3-tert-butyl-5-(2,4-dioxotetrahydropyrimidin-1(2H)-yl)-2-methoxyphenyl)-4-(methylsulfonylmethyl)benzamide]
- pIC50 [1]: < 6.00
- pIC50 [2]: < 6.00

SMILES: COc1c(Cc2cn(C)c3ccccc23)cc(N2CCC(=O)NC2=O)cc1C(C)(C)C [IA-L5-1-2.1, 1-(3-tert-butyl-4-methoxy-5-((1-methyl-1H-indol-3-yl)methyl)phenyl)dihydropyrimidine-2,4(1H,3H)-dione]
- pIC50 [1]: < 6.00
- pIC50 [2]: < 6.00

SMILES: CC(C)(C)c1cc(N2CCC(=O)NC2=O)cc(C(=O)Nc2ccc(OCC(N)=O)cc2)c1O [IA-L3-1.18, N-(4-(2-amino-2-oxoethoxy)phenyl)-3-tert-butyl-5-(2,4-dioxotetrahydropyrimidin-1(2H)-yl)-2-hydroxybenzamide]
- pIC50 [1]: < 6.00
- pEC50 [3]: < 6.00
- pEC50 [4]: 6.00 to 7.00

SMILES: CC(C)(C)c1cc(N2CCC(=O)NC2=O)cc(C(=O)Nc2ccc(OCC#N)cc2)c1O [IA-L3-1.17, 3-tert-butyl-N-(4-(cyanomethoxy)phenyl)-5-(2,4-dioxotetrahydropyrimidin-1(2H)-yl)-2-hydroxybenzamide]
- pIC50 [1]: < 6.00
- pEC50 [3]: < 6.00
- pEC50 [4]: < 6.00
